Here are results for six compounds from patent US20250213558A1, “T-TYPE CALCIUM CHANNEL MODULATORS COMPRISING A PIPERAZINE OR 1,4-DIAZEPANE CORE AND METHODS OF USE THEREOF” (Praxis Precision Medicines, Inc., priority 2022, published 2025).

Read-outs that look alike come from different tables or passages of the source.

One experiment deals with absence seizures. Conditions: childhood absence epilepsy, cited from earlier work.
In experiment [1] the target is T1, Human Cav3.1 calcium channel (Homo sapiens, UniProt O43497).
T1 construct: expressed in transfected cells; host or cells: HEK-293 natClytin/TASK1+Cav3.1 cell line
The experiment can be described thus: Human Cav3.1 calcium channel patch clamp assay (SyncroPatch 384PE; single point and IC50, voltage dependent block). The experiment is classed as cell-based. Conditions: HEK-293 natClytin/TASK1+Cav3.1 cell line; for % Inhibition (Single Point Data): Testing Conc 1.25, patch clamp; for IC50: voltage dependent block (VDB), read-out: Cav3.1 IC50. The gist of the method: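 Automated whole-cell patch clamp at room temperature, cells held at −120 mV; 100 ms step to −20 mV (resting block), then 1600 ms at −65 mV and a second −20 mV step (voltage-dependent block), every 15 s. Peak currents averaged over last 3 sweeps; % inhibition relative to nickel-sensitive current.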

[2] abbreviates: at 16 weeks, assessed by video-EEG recordings.

T1 sequence (O43497 whole entry): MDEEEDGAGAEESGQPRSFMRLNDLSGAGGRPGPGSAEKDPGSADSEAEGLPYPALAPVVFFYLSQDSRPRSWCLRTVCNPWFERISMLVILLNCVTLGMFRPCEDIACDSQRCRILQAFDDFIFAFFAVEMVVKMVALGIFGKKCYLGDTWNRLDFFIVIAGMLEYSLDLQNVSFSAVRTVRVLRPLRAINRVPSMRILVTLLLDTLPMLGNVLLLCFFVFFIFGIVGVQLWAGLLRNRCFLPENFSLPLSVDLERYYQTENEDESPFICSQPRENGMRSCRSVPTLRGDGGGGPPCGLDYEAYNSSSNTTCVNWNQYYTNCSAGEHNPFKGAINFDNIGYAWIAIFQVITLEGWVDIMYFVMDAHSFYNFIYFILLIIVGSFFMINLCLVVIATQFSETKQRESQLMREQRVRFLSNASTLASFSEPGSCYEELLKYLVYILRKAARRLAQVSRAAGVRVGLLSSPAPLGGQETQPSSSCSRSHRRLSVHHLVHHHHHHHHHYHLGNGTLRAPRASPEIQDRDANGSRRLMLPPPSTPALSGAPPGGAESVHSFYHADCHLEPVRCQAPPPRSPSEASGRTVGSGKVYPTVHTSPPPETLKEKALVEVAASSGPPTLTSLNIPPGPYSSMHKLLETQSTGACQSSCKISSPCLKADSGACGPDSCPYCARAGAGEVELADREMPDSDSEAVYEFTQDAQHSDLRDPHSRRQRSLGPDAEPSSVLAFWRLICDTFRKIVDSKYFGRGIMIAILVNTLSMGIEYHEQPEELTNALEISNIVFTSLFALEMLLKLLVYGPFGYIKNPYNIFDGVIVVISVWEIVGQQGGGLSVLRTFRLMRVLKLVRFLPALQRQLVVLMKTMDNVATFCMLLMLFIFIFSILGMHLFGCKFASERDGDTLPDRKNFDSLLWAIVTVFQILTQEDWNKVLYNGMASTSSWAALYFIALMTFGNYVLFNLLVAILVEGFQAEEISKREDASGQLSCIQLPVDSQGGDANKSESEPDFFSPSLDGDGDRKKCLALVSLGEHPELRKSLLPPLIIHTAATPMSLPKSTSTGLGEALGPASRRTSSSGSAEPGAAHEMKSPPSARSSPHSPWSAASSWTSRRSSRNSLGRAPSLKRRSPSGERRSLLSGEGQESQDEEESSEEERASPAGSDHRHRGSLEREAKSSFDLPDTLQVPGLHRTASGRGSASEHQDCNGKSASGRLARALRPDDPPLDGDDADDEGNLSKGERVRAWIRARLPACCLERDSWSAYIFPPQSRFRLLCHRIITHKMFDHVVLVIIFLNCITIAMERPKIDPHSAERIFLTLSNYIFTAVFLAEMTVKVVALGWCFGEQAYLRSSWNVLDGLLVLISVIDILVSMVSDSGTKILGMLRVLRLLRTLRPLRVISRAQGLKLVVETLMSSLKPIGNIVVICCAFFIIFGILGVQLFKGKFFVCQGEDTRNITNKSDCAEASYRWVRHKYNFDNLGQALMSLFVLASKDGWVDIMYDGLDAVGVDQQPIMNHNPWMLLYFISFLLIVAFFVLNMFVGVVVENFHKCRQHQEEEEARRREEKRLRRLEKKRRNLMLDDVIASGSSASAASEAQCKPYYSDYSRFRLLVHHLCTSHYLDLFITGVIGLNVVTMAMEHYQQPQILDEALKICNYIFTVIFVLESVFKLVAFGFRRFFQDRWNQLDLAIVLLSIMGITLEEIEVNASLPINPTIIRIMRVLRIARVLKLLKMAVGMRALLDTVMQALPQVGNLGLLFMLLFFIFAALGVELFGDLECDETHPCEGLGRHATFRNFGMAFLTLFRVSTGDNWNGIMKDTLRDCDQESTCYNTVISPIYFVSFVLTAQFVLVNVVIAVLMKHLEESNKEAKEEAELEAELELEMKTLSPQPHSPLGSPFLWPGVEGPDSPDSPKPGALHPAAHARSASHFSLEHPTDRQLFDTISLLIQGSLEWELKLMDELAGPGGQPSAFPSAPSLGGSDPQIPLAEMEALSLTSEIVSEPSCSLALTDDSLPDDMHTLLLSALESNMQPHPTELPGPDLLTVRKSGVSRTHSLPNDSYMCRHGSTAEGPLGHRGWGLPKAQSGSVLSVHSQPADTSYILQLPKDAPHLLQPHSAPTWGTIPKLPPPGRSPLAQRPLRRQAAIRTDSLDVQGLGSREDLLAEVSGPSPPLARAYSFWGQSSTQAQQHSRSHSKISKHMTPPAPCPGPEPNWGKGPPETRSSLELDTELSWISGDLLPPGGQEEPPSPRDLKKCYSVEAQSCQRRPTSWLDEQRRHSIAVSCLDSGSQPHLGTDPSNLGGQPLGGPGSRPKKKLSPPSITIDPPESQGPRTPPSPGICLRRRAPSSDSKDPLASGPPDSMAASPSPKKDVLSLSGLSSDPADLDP

Turning to `Nc1nnc(-c2cccc(Cl)c2Cl)c(N)n1` [Lamotrigine], the “patients in whom the seizures were completely controlled” value is 21% in the experiment on absence seizures (at 12 months) and 29% with absence seizures (setting [2]). `CCC1(C)CC(=O)NC1=O` (stereo not shown) [ethosuximide]: the “patients in whom the seizures were completely controlled” value in the experiment on absence seizures (at 12 months) is 45%; with absence seizures (setting [2]), 53%. Take `CC(C)(C)NC(=O)CN1CCCN(Cc2nc3c(Cl)cc(F)cc3[nH]2)CC1` [Compound 70]: in experiment [1], the “% Inhibition (Single Point Data)” value is reported as 87.175% and the IC50 was found to be 545 nM.

Take `Cn1nc(C(C)(C)C)cc1NC(=O)CN1CC2CCC(C1)N2CC(=O)NC(C)(C)C` [Compound 6]: the “% Inhibition (Single Point Data)” value in experiment [1] came out at 10.343%. Take `CC(C)(C)NC(=O)CN1C[C@@H]2C[C@H]1CN2CC(=O)NC12CCC(CC1)CC2` [Compound 287]: in experiment [1], the “% Inhibition (Single Point Data)” value is 72.068% and the half-inhibitory concentration (IC50) is 682 nM. For `CC(C)(C)CCN1C2CCC1CN(Cc1nc3c(Cl)cc(F)cc3[nH]1)C2` [Compound 77], the “% Inhibition (Single Point Data)” value in experiment [1] is listed as 100.45%.
